From patent publication US9549911B2, “Ginger metabolites and uses thereof” (North Carolina A&T State University, priority 2012, dated 2017)
Read-outs that look alike come from different tables or passages of the source.

Experiments:
[1] = Chemical inhibition of [6]-shogaol metabolism in liver microsomes; assay type: in vitro ADME, human; details: inhibitor 500 μM, 20 min pre-incubation, [6]-shogaol 50 μM, 30 min
Description: Inhibitors ABT (500 μM) and 18β-GA (500 μM) or DMSO controls were pre-incubated with microsomes in experimental incubation mixture at 37° C. for 20 minutes before initiating the reaction by the addition of [6]-shogaol (50 μM). Reactions were terminated 30 minutes after substrate addition and incubation in a 37° C. water bath by equal volume of ice-cold acetonitrile with 2% acetic acid. The mixture was vortexed and underwent centrifugation at 13,000 g for 10 minutes. Aliquots of supernatant were stored at −20° C. until analysis.

[2] = test system: human lung cancer cells H-1299; assay: MTT growth inhibition of human cancer and normal cells (Part 2); assay type: cell-based; details: for activity against cancer cells (MTT): H-1299, 0 to 80 μM; for IC50: H-1299, 48 h, 0 to 80 μM
Description: (§1) Growth inhibition of human cancer and normal cells. Cell growth inhibition was determined by a MTT colorimetric assay. Human colon cancer cells HCT-116, human lung cancer cells H-1299, human colon fibroblast cells CCD-18Co, and human lung fibroblast cells IMR-90 were plated in 96-well microtiter plates with 3000 cells/well and allowed to attach for 24 h at 37° C. […] After the cells were cultured for 48 h, the medium was aspirated and cells were treated with 200 μL fresh medium containing 2.41 mmol/L MTT. […] The reading reflected the number of viable cells and was expressed as a percentage of viable cells in the control. Both HCT-116 and H-1299 cells were cultured in McCoy's 5A medium. CCD-18Co and IMR-90 cells were cultured in Eagle's modified essential medium (EMEM). All of the above media were supplemented with 10% fetal bovine serum, 1% penicillin/streptomycin, and 1% glutamine, and the cells were kept in a 37° C. incubator with 95% humidity and 5% CO2.

[3] = test system: human colon cancer cells HCT-116; assay: as above; assay type: cell-based; details: for activity against cancer cells (MTT): HCT-116, 0 to 80 μM; for IC50: HCT-116, 48 h, 0 to 80 μM
Description: as §1

HCT-116 cells [4] = assay: Western blot analysis of apoptosis markers and p53 (Part 5); assay type: cell-based, human; details: HCT-116 (p53 wild-type), 24 hours; M2, 6S 10, 20 or 40 μM; 8S, M2′, 10S, M2″ 20 μM
Description: (§2) Cell lysates were prepared in ice-cold RIPA lysis buffer [25 mM Tris-HCl (pH 7.6), 150 mM NaCl, 1% NP-40, 1% sodium deoxycholate, 0.1% SDS, Thermo Fisher Scientific] supplemented with a protease inhibitor cocktail (AEBSF, aprotinin, bestatin, E-64, leupeptin and pepstatin A in DMSO with EDTA, Thermo Fisher Scientific). Protein content was measured by a Pierce BCA Assay Kit (Thermo Fisher Scientific). Protein contents of cell lysates (30 μg protein/lane) were resolved by SDS-PAGE. Proteins were then electro-transferred onto PVDF membranes and blots were blocked for one hour at room temperature in 1×TBS with 1% Casein (Bio-Rad Laboratories, Berkeley, Calif.). Blots were then incubated overnight at 4° C. with the desired primary antibody diluted in TBS with 0.5% Tween-20. Blots were then washed with TBS-Tween 20 and probed for 1 hour with the appropriate secondary antibody (1:1000). Protein bands were visualized with chemiluminescence using West Femto maximum detection substrate (Thermo Fisher Scientific). To confirm equal protein loading in each lane, immunoblots were stripped and re-probed for β-actin. Protein fold-induction was calculated by normalizing the intensity of the band of interest to β-actin first, and then to DMSO control lanes.

HT-29 cells = assay: as above; assay type: cell-based, human; details: HT-29 (p53 mutant), 24 hours; M2, 6S 10, 20 or 40 μM; 8S, M2′, 10S, M2″ 20 μM
Description: as §2

[5] = test system: human colon cancer cells HT-29; assay: MTT toxicity in colon cancer and normal colon cells (Part 5); assay type: cell-based; details: HT-29 (p53 mutant), 24 hours
Description: (§3) Cell viability was determined by an MTT colorimetric assay. […] The reading reflected the number of viable cells and was expressed as a percentage of viable cells in the control. CCD-18Co cells were grown in EMEM. Both HCT-116 and HT-29 cells were cultured in McCoy's 5A medium. All of the above media were supplemented with 10% fetal bovine serum, 1% penicillin/streptomycin, and 1% glutamine, and the cells were kept in a 37° C. incubator with 95% humidity and 5% CO2.

[6] = test system: human colon cancer cells HCT-116; assay: as above; assay type: cell-based; details: HCT-116, 24 hours
Description: as §3

[7] = test system: human colon fibroblast cells CCD-18Co; assay: in vitro; assay type: cell-based
Description: as §1

[8] = test system: human lung fibroblast cells IMR-90; assay: in vitro; assay type: cell-based
Description: as §1

in vitro [9] = assay type: cell-based, human; details: human; normal colon cells CCD-18Co, 48 h; read-out: IC50 (cytotoxicity, MTT)
Description: as §1

in vitro [10] = assay type: cell-based, human; details: human; normal lung cells IMR-90, 48 h; read-out: IC50 (cytotoxicity, MTT)
Description: as §1

HCT-116 cells [11] = assay: TUNEL apoptosis assay (Part 1); assay type: cell-based, human; details: 24 h
Description: (§4) HCT-116 and H-1299 cells were seeded in six-well plates at 1.0×10^5 cells/well and were incubated at 37° C. in a 5% CO2 incubator. After 24 h, fresh media supplemented with DMSO (control), [6]-shogaol (10 or 20 μM), M9 (40 or 80 μM), or M11 (40 or 80 μM) were added to the wells. After 24-h incubation, cells were washed and pretreated for 15 min at room temperature with a solution of 20 μg/ml proteinase K. Cells were then washed twice with PBS pH 7.4 and were fixed for 10 min at room temperature using 10% neutral formaldehyde solution. After two washes in distilled H2O, cells were resuspended in 100 μl of distilled H2O and were applied on silanized microscope slides. Slides were incubated overnight at 37° C. and were washed twice with PBS. Terminal deoxynucleotidyl transferase deoxyuridine triphosphate nick-end labeling (TUNEL) assay was then performed according to the manufacturer's protocol. Cells were observed under 400× power using a Zeiss A1 microscope (Carl Zeiss, Inc., Thornwood, N.Y.).
(§5) Ten fields per slide were evaluated, and TUNEL-positive cells (with brown coloration in the nucleus) were expressed as a percentage of the total number of cells contained in a field. Statistical Analysis. For simple comparisons between two groups, twotailed Student's t test was used. A p value of less than 0.05 was considered statistically significant in all the tests.

H-1299 cells [12] = assay: TUNEL apoptosis assay (Part 1); assay type: cell-based, human; details: 24 h
Description: as §4, §5

[13] = test system: HCT-116 human colon cancer cells; assay: MTT growth inhibition of human cancer cells, 24 h (Part 1); assay type: cell-based; details: Homo sapiens; HCT-116, 24 h, 0 to 80 μM
Description: (§6) The reading reflected the number of viable cells and was expressed as a percentage of viable cells in the control. Both HCT-116 and H-1299 cells were cultured in McCoy's 5A medium. All of the above media were supplemented with 10% fetal bovine serum, 1% penicillin/streptomycin, and 1% glutamine, and the cells were kept in a 37° C. incubator with 95% humidity and 5% CO2.

[14] = test system: H-1299 human lung cancer cells; assay: as above; assay type: cell-based; details: Homo sapiens, NCI-H1299; H-1299, 24 h, 0 to 80 μM
Description: as §6

HCT-116 cells [15] = assay: TUNEL apoptosis assay (Part 2); assay type: cell-based, human; details: HCT-116, 20 or 40 μM
Description: (§7) HCT-116 and H1299 cells were seeded in 6-well plates at 1×10^5 cells/well and incubated at 37° C. in 5% CO2 incubator. After 24 hours, fresh media supplemented with DMSO (control), [6]-shogaol, M2, M6, or M13 metabolites (20 μM or 40 μM) were added to the wells. After 6 or 24 hours incubation at 37° C. in 5% CO2 incubator, cells were washed and pre-treated for 15 min at room temperature with a solution of 20 μg/ml proteinase K. Cells were then washed twice with phosphate buffer saline pH 7.4 (PBS) and fixed for 10 min at room temperature using 10% neutral formaldehyde solution. After 2 washes in ddH2O, cells were resuspended in 100 μL ddH2O and applied on silanized microscope slides. Slides were incubated overnight at 37° C., and washed twice with PBS. TUNEL assay was then carried out according to the manufacturer's protocol. Cells were observed under 400× power using a Zeiss microscope A1 (Thornwood, N.Y.). 10 fields per slide were evaluated, and TUNEL+ cells (with brown coloration in the nucleus) were expressed as a percentage of the total number of cells contained in a field.

H-1299 cells [16] = assay: TUNEL apoptosis assay (Part 2); assay type: cell-based, human; details: H-1299, 20 or 40 μM, 24 hours
Description: as §7

CC1(C)[C@@H](O)CC[C@]2(C)[C@H]3C(=O)C=C4[C@@H]5C[C@@](C)(C(=O)O)CC[C@]5(C)CC[C@@]4(C)[C@]3(C)CC[C@@H]12 [18β-glycyrrhetinic acid]
effect on reductive metabolism of [6]-shogaol [1]: decimated the reductive metabolism

CCCCCC(CC(O)CCc1ccc(O)c(OC)c1)SCC(N)C(=O)O (stereo not drawn) [M1, 5-cysteinyl-M6]
activity against cancer cells (MTT) [2]: little to no activity | activity against cancer cells (MTT) [3]: little to no activity

CCCCCCCC(CC(=O)CCc1ccc(O)c(OC)c1)SC[C@H](N)C(=O)O (stereo partly drawn) [M2′, 5-cysteinyl-[8]-shogaol]
p53 expression (Western blot) (HCT-116 cells [4]): increase in p53 accumulation | p53 expression (Western blot) (HT-29 cells): increase in p53 accumulation | IC50 [5]: 31.2 µM | IC50 [6]: 15.2 µM

CCCCCCCCCC(CC(=O)CCc1ccc(O)c(OC)c1)SC[C@H](N)C(=O)O (stereo partly drawn) [M2″, 5-cysteinyl-[10]-shogaol]
p53 expression (Western blot) (HCT-116 cells [4]): increase in p53 accumulation | p53 expression (Western blot) (HT-29 cells): increase in p53 accumulation | IC50 [5]: 28.8 µM | IC50 [6]: 13.3 µM

CCCCCC(CC(O)CCc1ccc(O)c(OC)c1)SCC(NC(C)=O)C(=O)O (stereo not drawn) [M4, 5-N-acetylcysteinyl-M6]
activity against cancer cells (MTT) [2]: little to no activity | activity against cancer cells (MTT) [3]: little to no activity

CCCCCC(CC(=O)CCc1ccc(O)c(OC)c1)SC[C@H](NC(C)=O)C(=O)O (stereo partly drawn) [M5, 5-N-acetylcysteinyl-[6]-shogaol]
IC50 [7]: > 100 µM | IC50 [8]: > 100 µM | IC50 [2]: 72.6 µM | IC50 [3]: 54.3 µM

CCCCCCCC(=O)CCc1ccc(O)c(O)c1 [M8, 1-(3′,4′-dihydroxyphenyl)-decan-3-one]
IC50 at 48 h (in vitro [9]): > 100 µM | IC50 at 48 h (in vitro [10]): > 100 µM | IC50 ([3]; Homo sapiens): 58.8 µM

CCCCCCCC(O)CCc1ccc(O)c(OC)c1 (stereo not drawn) [M9, 1-(4′-hydroxy-3′-methoxyphenyl)-decan-3-ol]
apoptotic cells (TUNEL) (HCT-116 cells [11]; HCT-116, 40 μM): 9.6% | apoptotic cells (TUNEL) (HCT-116 cells [11]; HCT-116, 80 μM): 16.9% | apoptotic cells (TUNEL) (H-1299 cells [12]; H-1299, 40 μM): 7.4% | apoptotic cells (TUNEL) (H-1299 cells [12]; H-1299, 80 μM): 15.4% | IC50 at 48 h (in vitro [9]): > 100 µM | IC50 at 48 h (in vitro [10]): > 100 µM | IC50 ([2]; Homo sapiens, NCI-H1299): 82.5 µM | IC50 ([3]; Homo sapiens): 82.2 µM | IC50 [13]: 82.2 µM | IC50 [14]: 77.7 µM

CCCCCC(CC(=O)CCc1ccc(O)c(OC)c1)SC (stereo not drawn) [M10, 5-methylthio-1-(4′-hydroxy-3′-methoxyphenyl)-decan-3-one]
IC50 at 48 h (in vitro [9]): > 100 µM | IC50 at 48 h (in vitro [10]): > 100 µM | IC50 ([2]; Homo sapiens, NCI-H1299): 60.6 µM | IC50 ([3]; Homo sapiens): 78.2 µM

CCCCCCCC(=O)CCc1ccc(O)c(OC)c1 [M11, 1-(4′-hydroxy-3′-methoxyphenyl)-decan-3-one]
apoptotic cells (TUNEL) (HCT-116 cells [11]; HCT-116, 40 μM): 12.9% | apoptotic cells (TUNEL) (HCT-116 cells [11]; HCT-116, 80 μM): 21.1% | apoptotic cells (TUNEL) (H-1299 cells [12]; H-1299, 40 μM): 8.3% | apoptotic cells (TUNEL) (H-1299 cells [12]; H-1299, 80 μM): 19.4% | IC50 at 48 h (in vitro [9]): > 100 µM | IC50 at 48 h (in vitro [10]): > 100 µM | IC50 ([2]; Homo sapiens, NCI-H1299): 66.5 µM | IC50 ([3]; Homo sapiens): 84 µM | IC50 [13]: 84 µM | IC50 [14]: 66.5 µM

CCCCCC(CC(O)CCc1ccc(O)c(OC)c1)SC (stereo not drawn) [M12, 5-methylthio-1-(4′-Hydroxy-3′-methoxyphenyl)-decan-3-ol]
IC50 at 48 h (in vitro [9]): > 100 µM | IC50 at 48 h (in vitro [10]): > 100 µM | IC50 ([2]; Homo sapiens, NCI-H1299): 69.9 µM

CCCCCC(CC(=O)CCc1ccc(O)c(OC)c1)SC[C@H](NC(=O)CC[C@H](N)C(=O)O)C(=O)NCC(=O)O (stereo partly drawn) [M13, 5-glutathiol-[6]-shogaol]
IC50 [7]: 75.5 µM | induction of apoptosis (TUNEL) versus DMSO (HCT-116 cells [15]; 6 hours): higher levels of apoptosis | induction of apoptosis (TUNEL) versus DMSO (HCT-116 cells [15]; 24 hours): Apoptosis was observed | induction of apoptosis (TUNEL) versus DMSO (H-1299 cells [16]): Apoptosis was observed | IC50 [8]: 57.5 µM | IC50 [2]: 47.8 µM | IC50 [3]: 45.5 µM
